{"source": "patent US20190231755A1", "about": "“METHOD FOR PRODUCING SOLID DISPERSION COMPRISING RAPAMYCIN DERIVATIVE” (NIPPON KAYAKU KABUSHIKI KAISHA, priority 2016, published 2019)", "type_in_all_cases": "physicochemical", "key": {"[1]": {"assay": "Stability test of everolimus with hypromellose in an ethanol solution (Reference Example 3)", "conditions": "10 mg everolimus with 150 mg hypromellose and 15 mg anhydrous lactose in 10 mL ethanol, 25° C.; immediately after the production (FIG. 4)", "experimental": "(§1) It is to be noted that, in the analysis using liquid chromatography (HPLC) in the present test examples, the measurement was carried out under the following conditions. • Measurement column: Zorbax Eclipse XDB-C18, Rapid resolution HT, 100 mm×4.6 mm, 1.8 μm • Detector: ultraviolet absorption spectrophotometer (measurement wavelength: 278 nm) • Column temperature: 45° C. • Mobile phase A: 0.1% formic acid; mobile phase B: methanol/acetonitrile=50/50\nThe stability test of everolimus comprising a water-soluble polymeric carrier in an ethanol solution was carried out. 10 mL of ethanol was added to 150 mg of hypromellose (TC-5 E Type, manufactured by Shin-Etsu Chemical Co., Ltd.), and the obtained mixture was then stirred. To this mixture, 10 mg of everolimus was added, followed by stirring, and thereafter, 15 mg of anhydrous lactose was added to the reaction mixture, and the obtained mixture was further stirred. The thus prepared mixture was stored at 25° C.\nThe remaining amount of everolimus immediately after initiation of the storage test, and also 0.75 hours and 2 hours after initiation of the storage test was measured by high performance liquid chromatography (HPLC), and the peak area ratio of everolimus at each time point was then calculated."}, "[2]": {"assay": "Stability test of everolimus with hypromellose in ethanol:acetone (=9:1) (Reference Example 2)", "conditions": "10 mg everolimus with 150 mg hypromellose in 10 mL ethanol:acetone (=9:1), 25° C., up to 6 hours (FIG. 3)", "experimental": "as §1\nThe stability test of everolimus comprising a water-soluble polymeric carrier in a mixed solution of ethanol and acetone (=9:1) was carried out. 10 mL of the mixed solution of ethanol and acetone (=9:1) was added to 150 mg of hypromellose (TC-5 E Type, manufactured by Shin-Etsu Chemical Co., Ltd.), and the obtained mixture was then stirred. To this mixture, 10 mg of everolimus was added, and the thus prepared mixture was then stored at 25° C.\n(§2) The remaining amount of everolimus immediately after initiation of the storage test, and also 1 hour, 3 hours and 6 hours after initiation of the storage test was measured by high performance liquid chromatography (HPLC), and the peak area ratio of everolimus at each time point was then calculated."}, "[3]": {"assay": "Stability test of everolimus in various mixed solvents (Reference Example 1)", "conditions": "1 mg/mL everolimus in ethanol/acetone mixed solvents, 25° C., up to 24 hours; when the ratio of ethanol is increased (FIG. 2)", "experimental": "as §1\nThe stability test of everolimus in various mixed solvents was carried out. Various mixed solvents were each added to everolimus, and the prepared solutions each containing 1 mg/mL everolimus were then stored at 25° C.\nas §2, with “3 hours, 6” for “3”, “24” for “6”, “calculated. The ratio of solvents used for each sample is shown in Table 2, and the results obtained by measuring the remaining ratio of everolimus are shown in FIG. 2.” for “calculated.”"}}, "data": [{"molecule": "CO[C@H]1C[C@@H]2CC[C@@H](C)[C@@](O)(O2)C(=O)C(=O)N2CCCC[C@H]2C(=O)O[C@H]([C@H](C)C[C@@H]2CC[C@@H](OCCO)[C@H](OC)C2)CC(=O)[C@H](C)/C=C(\\C)[C@@H](O)[C@@H](OC)C(=O)[C@H](C)C[C@H](C)/C=C/C=C/C=C/1C", "note": "[everolimus, 40-O-(2-hydroxyethyl)rapamycin]", "values": [{"measurement": "remaining ratio of everolimus", "setting": "[1]", "result": "less than 96%"}, {"measurement": "stability of everolimus in mixture (in words)", "setting": "[2]", "result": "improved"}, {"measurement": "purity of everolimus in solution (trend in words)", "setting": "[3]", "result": "decreased"}]}]}
